The text below walks through data of patent US20260365698A1, “STAPLED PEPTIDES FOR SENSITIZATION OF CANCER TO TREATMENT” (Purdue Research Foundation, priority 2022, published 2026).

Type in all cases: cell-based
Data set [1] concerns HEK-293T cells. The experiment in a line: Toxicity to the cells in the luciferase assay. To be noted: 16 hours, listed as NIS. The protocol: The peptides from Example 1 were screened for Nrf2 inhibition using a previously developed dual luciferase assay. Ren et al., Brusatol enhances the efficacy of chemotherapy by inhibiting the Nrf2-mediated defense mechanism, Biological Sciences 108(4): 1433-1438 (2011). Briefly, HEK-293T cells stably expressing ARE-firefly luciferase and TK-Renilla luciferase were used. The cells were treated with different concentrations of compounds N1 (SEQ ID NO: 3), N1 S (SEQ ID NO: 6), N2 (SEQ ID NO: 4), N2S (SEQ ID NO: 7), N3 (SEQ ID NO: 5), and N3S (SEQ ID NO: 8) for 16 hours. The cells were lysed in 1× passive lysis buffer, and both firefly luciferase and Renilla luciferase activities were measured using the Promega Dual-Luciferase™ Reporter (DLR™) Assay System and a luminometer (Turner Biosystems 20/20^n Luminometer). The samples were in triplicate for all concentrations of compounds (n=3).

In data set [2] the test system is thioredoxin reductase 1 (TrxR1) in A549 cells. The experiment in a line: Western blot, TrxR1 expression. To be noted: 72 hours. The protocol: After confirming the in vitro activity of NIS, its mechanism in a cellular context was examined. Western blots were carried out in the A549 non-small cell lung cancer cell line to show the effects of N1S inhibition on the protein expression of Nrf2-regulated proteins. Briefly, A549 cells were seeded in 6-well plates at a concentration of 2×10^5 cells/ml in 2.5 ml. Cells were treated the next day with either peptide at the desired concentration or DMSO. After a 72-hour incubation, cells were collected by trypsinization and centrifugation. Pellets were washed with PBS three times before the pellet was resuspended in 250 μL of RIPA buffer containing protease inhibitor and kept on ice for 30 minutes with intermittent vortex. The cells were then spun at 16,000 g for 5 minutes, and the supernatant was collected. Protein concentration of lysate was normalized with Pierce BCA Protein Assay Kit (Thermo Fisher Scientific, Waltham, MA). Equal volumes of lysate were mixed with 2× Laemmli sample buffer before separating on 4-15% Mini Protean TGX SDS-PAGE (Bio-Rad Laboratories, Hercules, CA). […]
ImageJ was used for quantification of all bands. Primary antibodies: TrxR1 (Santa Cruz Biotechnology, Dallas, TX), sc-28321, 1:100 dilution (~55 kDa band analyzed); j-actin (Cell Signaling Technology, Inc., Danvers, MA), #3700, 1:1000. […]
In general terms: In western blotting, separated proteins are transferred to a membrane and probed.

Data set [3] has as its system A549 non-small cell lung cancer cells. The data set can be described thus: Incucyte live-cell analysis of combination with cisplatin; synergy by Chou-Talalay method. The conditions noted are these: relatively low concentrations of cisplatin, varying concentrations of N1S. The protocol: Cl values<1 were synergistic (red), CI values=1 were additive (green), and CI values>1 were antagonistic (not observed).
NTS, cisplatin, or a combination thereof. Error bars represent the standard deviation between three technical replicates. The data are representative of three independent experiments.
(§1) The ability of compound N1S to increase sensitivity to chemotherapeutics was examined. A549 non-small cell lung cancer cells were seeded into a Corning® 96-Well Cell Culture Plate (clear, sterile, non-treated) and incubated for 24 hours. The cells were treated with cisplatin alone, compound NIS alone, or in combination. Immediately following treatment, the cells were placed into an Incucyte® S3 Live-Cell Analysis Instrument (Sartorius AG, Gottingen, Germany) and imaged every two hours for three days. The Incucyte® S3's analytical software was used to calculate cell confluency at each time point. Synergy was determined using the Chou-Talalay method.

Data set [4] has the same test system. The experiment in a line: MTT assay / live cell growth, combination with cisplatin. The protocol:
Percent dead in red color indicates higher percentage of death. Data are representative of three independent replicates.
as §1
Additionally, an MTT assay was performed on the plate of cells from the Incucyte® study, and a separate, identical plate of cells was incubated for 24 hours. MTT reagent (20 μL of 5 mM stock) was added to each well and incubated for three hours at 37 °C. Following incubation, the plate was spun down at 2,500 rpm for five minutes at room temperature and then aspirated to remove the media. […] The absorbance of each well was measured at 570 nm using a plate reader (Molecular Devices SpectraMax® iD5 Multi-Mode Microplate Reader). […]
On the technique in general: Tetrazolium dyes change colour on reduction, which living cells bring about.

Data set [5] can be described thus: Hemolysis assay. To be noted: red blood cells. The protocol: (§2) Finally, a hemolysis assay was performed based on a method described in Hostetler et al. (2021), supra. The peptides were tested at a final concentration of 100 μM and an average of 0.3% hemolysis was observed (data not shown).
In data set [6] the test system is red blood cells. The data set can be described thus: Hemolysis assay. The conditions noted are these: 100 μM. The protocol:
as §2

“Also recorded” adds a separate entry of the source. Bridge positions count the residues as written; N and C are the ends. Square brackets hold non-standard residues; d marks the D form. Peptide text beside a SMILES is read from it. S5 = C=CCCC[C@](C)(N)C(=O)O

`CC[C@H](C)[C@H](NC(C)=O)C(=O)N[C@H](C(=O)N[C@@H](CCC(=O)O)C(=O)N[C@@H](CC(C)C)C(=O)N[C@@H](CCC(=O)O)C(=O)N[C@@]1(C)CCCC=CCCC[C@@](C)(C(=O)N[C@@H](CC(C)C)C(=O)N[C@@H](CCCCN)C(=O)N[C@@H](CC(=O)O)C(=O)N[C@@H](CCC(=O)O)C(=O)N[C@@H](CCCCN)C(=O)N[C@@H](CCC(=O)O)C(N)=O)NC(=O)[C@H](CC(=O)O)NC(=O)[C@H](CC(C)C)NC(=O)[C@H](CC(=O)O)NC1=O)C(C)C` [N1S] (Ac-IVELE[S5]DLD[S5]LKDEKE-NH2; staple 6-10): the “toxicity to the cells” value in data set [1] is listed as “no toxicity; also recorded: without showing toxicity”. Also, in data set [2], the TrxR1 protein expression entry was “decrease”. Also, the synergy with cisplatin entry in data set [3] was “synergy was observed; also recorded: strong synergy”. In addition, the “growth compared to either treatment alone” value in data set [4] (50 μM N1S combined with 6 μM cisplatin) is reported as “greatly reduced levels of growth”. In addition, the “sensitization of cancer cell lines to chemotherapeutics” value in data set [4] (combination with cisplatin) is recorded as “can greatly sensitize cancer cell lines to chemotherapeutics”. In data set [5], this compound gave a hemolysis at 100 µM of 0.3%. For the same compound, the “toxicity to red blood cells” value in data set [6] is on record as “no toxicity”.
